Test results reported in patent publication US9266867B2, “Piperidinyl monocarboxylic acids as S1P1 receptor agonists” (BIOPROJET, priority 2011, dated 2016).
Where a name gives a salt, the structure may show the parent alone. Read-outs that look alike come from different tables or passages of the source.

Tests used:
[1] = Pharmacokinetic parameters in Swiss mice after oral administration; details: mouse, in vivo, 1 mg/kg p.o.; for Cmax: n = 4; for AUC(0-t): n = 4, read-out: AUC(0-48 h)
Text: Moreover, preferred compounds of the present invention also display an outstanding bioavailability.

circulating lymphocytes [2] = test: In vivo lymphopenia ED50 in mice; details: Mus musculus, Lymphocyte, read-out: ED50 (EDG1) (In mice)
Method: (§1) b) Assessment of Lymphopenia
(§2) Lymphopenia was assessed in vivo. Experiments were done in non-fasted/fasted Swiss mice and/or: Sprague Dawley rats, Wistar rats, Beagle dogs, Cynomolgus monkeys. Compounds were administered orally in suspension in carboxymethyl-cellulose 0.5-1% in water (W/V). Blood was taken on anesthetized/non anaesthetized animal (4% isoflurane) and samples collected in EDTA-containing vacuum tubes from 1 h 30 to 72 hours post administration for lymphopenia measurement.
(§3) After 10 minutes stirring, cells were counted using ABC Vet haemocytometer (Scil vet animal Care) for rodent and dog or ADVIA 120 hematology analyzer for monkeys. Pharmacodynamic effect was measured by the decrease in circulating lymphocytes by test item treatment in comparison with haematological parameters of control animals or versus predosing in the same animals.

EDG1 = test: In vivo activity versus counterpart of WO 2007/132307; details: at 1 mg/kg
Text: The compounds of the invention show a better in vivo activity profile over their corresponding counterparts of WO 2007/132307, as evidenced below: […]

EDG3 = EDG3 (Homo sapiens, UniProt Q99500); test: 35S-GTPγS binding assay, EDG3 (S1P3); format: biochemical; details: Table 1a
EDG3, sequence (Q99500 whole entry, species assumed): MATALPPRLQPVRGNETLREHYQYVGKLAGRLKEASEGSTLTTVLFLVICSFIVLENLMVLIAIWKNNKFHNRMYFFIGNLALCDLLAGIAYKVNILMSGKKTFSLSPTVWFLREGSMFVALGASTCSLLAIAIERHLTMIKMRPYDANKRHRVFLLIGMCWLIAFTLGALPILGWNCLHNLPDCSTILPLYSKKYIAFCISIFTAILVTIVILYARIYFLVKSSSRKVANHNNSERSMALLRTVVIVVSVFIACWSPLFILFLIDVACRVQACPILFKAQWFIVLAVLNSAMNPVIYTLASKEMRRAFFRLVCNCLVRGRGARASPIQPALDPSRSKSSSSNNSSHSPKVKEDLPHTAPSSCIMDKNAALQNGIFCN
Method: (§4) a) 35S-GTPγS Binding Assay GTP-γ-^35S binding was performed using […]15 μg protein of cell membranes suspended in 50 mM tris-HCl pH 7.5 containing 10 mM MgCl2, 100 mM NaCl and 10 μM GDP. The radioligand was 0.025 nM [^35S] GTP-γ-S and non specific binding determined in the presence of 10 μM non-radioactive GTP-γ-S. […] The maximal stimulation elicited by S1P was taken as a reference to define full or partial agonism and calculate the intrinsic activity (i.a.) of compounds.

EDG5 = EDG5 (Homo sapiens, UniProt O95136); test: 35S-GTPγS binding assay, EDG5 (S1P2); format: biochemical; details: Table 1a
EDG5, sequence (O95136 whole entry, species assumed): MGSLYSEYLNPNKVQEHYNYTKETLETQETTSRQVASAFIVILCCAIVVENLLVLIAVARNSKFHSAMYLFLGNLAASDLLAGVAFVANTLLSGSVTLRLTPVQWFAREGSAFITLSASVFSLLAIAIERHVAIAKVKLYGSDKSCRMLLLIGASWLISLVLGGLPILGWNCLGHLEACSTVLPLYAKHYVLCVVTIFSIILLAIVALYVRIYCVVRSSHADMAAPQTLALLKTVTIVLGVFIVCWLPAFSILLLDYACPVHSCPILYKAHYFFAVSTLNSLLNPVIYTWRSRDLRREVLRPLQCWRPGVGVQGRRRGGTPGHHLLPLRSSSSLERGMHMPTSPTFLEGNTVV
Method: as §4

hERG channel = hERG channel (Homo sapiens, UniProt Q12809); test: biochemical
hERG channel, sequence (Q12809 whole entry): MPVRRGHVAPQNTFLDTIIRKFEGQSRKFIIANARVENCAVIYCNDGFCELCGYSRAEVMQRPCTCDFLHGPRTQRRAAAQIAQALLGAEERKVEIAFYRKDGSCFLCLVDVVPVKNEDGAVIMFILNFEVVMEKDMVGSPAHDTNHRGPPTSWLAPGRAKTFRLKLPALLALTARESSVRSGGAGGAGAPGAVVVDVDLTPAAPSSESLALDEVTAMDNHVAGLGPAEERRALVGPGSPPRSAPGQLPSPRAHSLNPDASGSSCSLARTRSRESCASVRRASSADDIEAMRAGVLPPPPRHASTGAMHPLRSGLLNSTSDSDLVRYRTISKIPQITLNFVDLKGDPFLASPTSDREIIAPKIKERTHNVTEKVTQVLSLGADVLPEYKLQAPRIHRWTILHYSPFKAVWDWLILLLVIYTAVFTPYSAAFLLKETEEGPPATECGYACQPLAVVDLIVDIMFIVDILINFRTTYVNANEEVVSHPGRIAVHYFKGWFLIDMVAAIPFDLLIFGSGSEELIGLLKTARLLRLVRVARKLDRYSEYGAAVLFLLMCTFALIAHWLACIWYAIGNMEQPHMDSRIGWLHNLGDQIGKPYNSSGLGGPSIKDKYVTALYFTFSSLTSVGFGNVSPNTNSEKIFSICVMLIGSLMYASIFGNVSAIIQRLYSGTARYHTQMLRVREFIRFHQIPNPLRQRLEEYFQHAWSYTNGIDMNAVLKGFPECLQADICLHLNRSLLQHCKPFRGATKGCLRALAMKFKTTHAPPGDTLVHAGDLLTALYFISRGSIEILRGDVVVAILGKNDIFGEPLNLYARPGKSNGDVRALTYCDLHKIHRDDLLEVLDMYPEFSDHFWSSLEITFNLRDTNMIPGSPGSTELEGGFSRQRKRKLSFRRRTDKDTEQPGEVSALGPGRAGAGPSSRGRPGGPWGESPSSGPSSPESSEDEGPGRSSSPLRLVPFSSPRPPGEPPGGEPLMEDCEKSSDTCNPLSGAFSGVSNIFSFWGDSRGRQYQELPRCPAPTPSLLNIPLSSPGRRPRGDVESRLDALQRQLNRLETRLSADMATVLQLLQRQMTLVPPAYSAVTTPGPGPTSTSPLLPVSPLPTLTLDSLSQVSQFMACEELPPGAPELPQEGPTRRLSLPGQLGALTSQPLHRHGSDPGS
Method: c) Evaluation of Activity for hERG Blockade Liability
HEK293 cells were stably transfected with the human hERG receptor gene. Binding assays were performed using 5 μg of cell membranes expressing hERG channel resuspended in 10 mM Hepes pH 7.4, 135 mM NaCl, 60 mM DL-Aspartic Acid Potassium, 1 mM EGTA, 0.8 mM MgCl2, 10 mM (D+) Glucose, 0.01% BSA, in a final volume of 200 μL. For [^3H] […] Non specific binding was estimated in the presence of 1 μM Astemizole. The reaction was terminated by filtration through Durapore BV 1.2 μm filters pre-soaked in 3% polyethyleneimine 10 minutes at room temperature. Filters were rinsed 2 times with 250 μL of ice cold 25 mM Tris-HCl pH 7.4 buffer. The filter-bound radioactivity was measured in a liquid scintillation counter with 50 μL of scintillation fluid. [^3H]
The hERG binding investigated by use of [^3H]

EDG-1 [3] = molecular target: T1, EDG-1 (Homo sapiens, UniProt P21453); test: 35S-GTPγS binding assay, EDG1 (S1P1); format: biochemical; parameters: expressed in transfected cells
T1 sequence (P21453 whole entry): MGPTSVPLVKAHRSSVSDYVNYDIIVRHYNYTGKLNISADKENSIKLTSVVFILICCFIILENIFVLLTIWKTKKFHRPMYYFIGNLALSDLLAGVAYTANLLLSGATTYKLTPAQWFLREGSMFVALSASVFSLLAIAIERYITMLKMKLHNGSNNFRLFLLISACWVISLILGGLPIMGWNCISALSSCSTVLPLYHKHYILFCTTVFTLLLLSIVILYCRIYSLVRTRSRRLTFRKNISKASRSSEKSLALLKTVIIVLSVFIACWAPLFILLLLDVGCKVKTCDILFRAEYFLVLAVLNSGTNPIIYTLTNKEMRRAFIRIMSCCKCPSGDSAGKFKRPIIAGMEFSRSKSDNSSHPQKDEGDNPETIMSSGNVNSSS
Method: as §4

circulating lymphocytes [4] = test: Assessment of lymphopenia in rats; format: in vivo; details: 0.3 mpk, 24 hrs
Method: as §1, §2, §3

EDG-1 [5] = molecular target: T1, EDG-1; test: [3H]dihydroS1P binding assay on HEK293-EDG-1 cell membranes; parameters: expressed in transfected cells; host or cells: HEK293; details: transfected HEK293 cells; read-out: IC50, competition with [3H]dihydroS1P
Text: Furthermore, we settled a binding assay on HEK293-EDG-1 cells on these membranes using [3H]dihydroS1P. By Scatchard analysis we identified one binding site for [3H]dihydroS1P. Both S1P and dihydroS1P (an S1P biometabolite) compete with [3H]dihydroS1P on transfected HEK293 cells with an 1050 closed to 5± nM and a maximum binding capacity Bmax of […] of protein.

[6] = Table 1a, read-out: EC50 (nM) EDG1

EC50 (EDG3) [nM] | EC50 (EDG5) [nM] | EC50 (EDG-1 [3]; [6]) [nM] | EC50 (EDG-1 [3]; Table 1b, read-out: EDG1 EC50) [nM] | SMILES | ED50 (circulating lymphocytes [2]) [mg/kg] | Ki (hERG channel) [nM] | also measured
 |  | < 1 | < 1 | CC(C)Cc1ccc(-c2nc(-c3ccc(CN4CCC(C)(C(=O)O)CC4)cc3)no2)cc1Cl [Example 2, 1-{4-[5-(3-chloro-4-isobutylphenyl)-[1,2,4]-oxadiazol-3-yl]benzyl}-4-methylpiperidine-4-carboxylic acid, tert-butylamine salt] |  | > 10000 | Lymphopenia in rats % lymphopenia at given dose at 24 hrs (circulating lymphocytes [4]; Sprague-Dawley female): 76% (0.3 mpk)
581 | > 1000 | < 1 | < 1 | CC1(C(=O)O)CCN(Cc2ccc(-c3noc(-c4ccc(C5CCCC5)c(Cl)c4)n3)cc2)CC1 [Example 7, 1-{4-[5-(3-chloro-4-cyclopentylphenyl)-[1,2,4]-oxadiazol-3-yl]benzyl}-4-methylpiperidine-4-carboxylic acid] |  | > 10000 | 
 |  |  | < 1 | CC1(C(=O)O)CCN(Cc2ccc(-c3noc(-c4ccc(-c5ccccc5)c(Cl)c4)n3)cc2)CC1 [Example 8, 1-{4-[5-(2-Chlorobiphenyl-4-yl)-[1,2,4]-oxadiazol-3-yl]benzyl}-4-methylpiperidine-4-carboxylic acid] | 0.1 |  | 
198 | > 1000 | < 1 | < 1 | CCC1(C(=O)O)CCN(Cc2ccc(-c3noc(-c4ccc(CC(C)C)c(Cl)c4)n3)cc2)CC1 [Example 11, 1-{4-[5-(3-chloro-4-isobutylphenyl)-[1,2,4]-oxadiazol-3-yl]benzyl}-4-ethylpiperidine-4-carboxylic acid tert-butyl amine salt] |  | > 10000 | Lymphopenia in rats % lymphopenia at given dose at 24 hrs (circulating lymphocytes [4]; Wistar female): 75% (0.3 mpk)
> 1000 | > 1000 | < 1 | < 1 | C=CCC1(C(=O)O)CCN(Cc2ccc(-c3noc(-c4ccc(CC(C)C)c(Cl)c4)n3)cc2)CC1 [Example 12, 4-allyl-1-{4-[5-(3-chloro-4-isobutylphenyl)-[1,2,4]-oxadiazol-3-yl]benzyl}piperidine-4-carboxylic acid tert-butyl amine salt] |  | > 10000 | Lymphopenia in rats % lymphopenia at given dose at 24 hrs (circulating lymphocytes [4]; Wistar female): 66% (0.3 mpk)
> 1000 | > 1000 | < 1 | < 1 | CCCC1(C(=O)O)CCN(Cc2ccc(-c3noc(-c4ccc(CC(C)C)c(Cl)c4)n3)cc2)CC1 [Example 13, 1-{4-[5-(3-chloro-4-isobutylphenyl)-[1,2,4]-oxadiazol-3-yl]benzyl}-4-propylpiperidine-4-carboxylic acid tert-butyl amine salt] |  | > 10000 | 
> 1000 | > 1000 | < 1 |  | COCCOCC1(C(=O)O)CCN(Cc2ccc(-c3noc(-c4ccc(CC(C)C)c(Cl)c4)n3)cc2)CC1 [Example 14, 1-{4-[5-(3-chloro-4-isobutylphenyl)-[1,2,4]-oxadiazol-3-yl]benzyl}-4-(2-methoxyethoxymethyl)piperidine-4-carboxylic acid tert-butyl amine salt] | 0.2 | > 10000 | Lymphopenia in rats % lymphopenia at given dose at 24 hrs (circulating lymphocytes [4]; Wistar male): 72% (0.3 mpk); Cmax [1]: 843 ng/mL; AUC(0-t) [1]: 9240 ng·h/mL
> 1000 | > 1000 | < 1 | < 1 | CC(C)Cc1ccc(-c2nc(-c3ccc(CN4CCC(CO)(C(=O)O)CC4)cc3)no2)cc1Cl [Example 15, 1-{4-[5-(3-chloro-4-isobutylphenyl)-[1,2,4]-oxadiazol-3-yl]benzyl}-4-hydroxymethylpiperidine-4-carboxylic acid tert-butyl amine salt] |  | > 10000 | Lymphopenia in rats % lymphopenia at given dose at 24 hrs (circulating lymphocytes [4]; Sprague-Dawley female): 69% (0.3 mpk)

Second part, the molecule before the results:

SMILES | EC50 (EDG3) [nM] | EC50 (EDG5) [nM] | EC50 (EDG-1 [3]; [6]) [nM] | EC50 (EDG-1 [3]; Table 1b, read-out: EDG1 EC50) [nM] | ED50 (circulating lymphocytes [2]) [mg/kg] | Ki (hERG channel) [nM] | also measured
CC(C)Cc1ccc(-c2nc(-c3ccc(CN4CC(C(=O)O)C4)cc3)no2)cc1 [Comparative compound 5, reference compound] |  |  |  |  |  |  | Cmax [1]: 495 ng/mL; AUC(0-t) [1]: 4530 ng·h/mL
Cl.O=C(O)C1(C(=O)O)CCN(Cc2ccc(-c3noc(-c4ccc(-c5ccccc5)c(F)c4)n3)cc2)CC1 [Comparative example 6, reference compound] |  |  |  |  | 0.4 |  | 
CC(C)Cc1ccc(-c2nc(-c3ccc(CN4CCC(C(=O)O)(C(=O)O)CC4)cc3)no2)cc1 [Comparative example 7, reference compound] |  |  |  |  | 1.8 |  | 
Cl.O=C(O)C1(C(=O)O)CCN(Cc2ccc(-c3noc(-c4ccc(C5CCCCC5)cc4)n3)cc2)CC1 [Comparative example 8, reference compound] |  |  |  |  | 10 |  | 
CC(C)Cc1ccc(-c2nc(-c3ccc(CN[C@H]4C[C@@H](C(=O)O)C4)cc3)no2)cc1 [Comparative example 9, reference compound] |  |  |  |  |  |  | ED50 (EDG1) (EDG1): Inactive at 1 mg/kg
CC1(C(=O)O)CCN(Cc2ccc(-c3noc(-c4ccc(C5CCCCC5)c(Cl)c4)n3)cc2)CC1 [Example 1, 1-{4-[5-(3-chloro-4-cyclohexylphenyl)-[1,2,4]-oxadiazol-3-yl]benzyl}-4-methylpiperidine-4-carboxylic acid] | > 1000 | > 1000 | < 1 | < 1 |  | > 10000 | 
CC(C)Cc1ccc(-c2nc(-c3ccc(CN4CCC(C)(C(=O)O)CC4)cc3)no2)cc1Cl [Example 3, 1-{4-[5-(3-chloro-4-isobutylphenyl)-[1,2,4]-oxadiazol-3-yl]benzyl}-4-methylpiperidine-4-carboxylic acid] |  |  |  |  | 0.2 |  | Cmax [1]: 798 ng/mL; AUC(0-t) [1]: 13100 ng·h/mL
COCC1(C(=O)O)CCN(Cc2ccc(-c3noc(-c4ccc(C5CCCC5)c(Cl)c4)n3)cc2)CC1 [Example 9, 1-{4-[5-(3-chloro-4-cyclopentylphenyl)-[1,2,4]-oxadiazol-3-yl]benzyl}-4-methoxymethylpiperidine-4-carboxylic acid tert-butyl amine salt] | > 1000 | > 1000 | < 1 | < 1 |  | > 10000 | 
COCC1(C(=O)O)CCN(Cc2ccc(-c3noc(-c4ccc(C5CCCCC5)c(Cl)c4)n3)cc2)CC1 [Example 10, 1-{4-[5-(3-chloro-4-cyclohexylphenyl)-[1,2,4]-oxadiazol-3-yl]benzyl}-4-methoxymethylpiperidine-4-carboxylic acid tert-butyl amine salt] | 610 |  | < 1 | < 1 | 0.2 | > 10000 | 
CCCCCCCCCCCCC/C=C/[C@@H](O)[C@@H](N)COP(=O)(O)O [Example S1P, sphingosine-1-phosphate] |  |  |  |  |  |  | IC50 (EDG-1 [5]): ~5 nM
CCCCCCCCCCCCCCC[C@@H](O)[C@@H](N)COP(=O)(O)O [dihydroS1P] |  |  |  |  |  |  | IC50 (EDG-1 [5]): ~5 nM
CC(C)Cc1ccc(-c2nc(-c3ccc(CN4CCC(C)(C(=O)O)CC4)cc3)no2)cc1 [drawing 239] |  |  |  |  |  |  | lymphopenia (EDG1): 40% at 1 mg/kg
